Values after ≈ are worked out from the molar mass of the structure shown. Active and inactive are the calls of the source. No cut-off for these calls is given here.
Key:
[1] = molecular target: Beta-1 adrenergic receptor (Homo sapiens) (UniProt P08588); assay: Inhibition of human beta-1 receptor at 10 uM
[2] = molecular target: Type-1 angiotensin II receptor (Homo sapiens) (UniProt P30556); assay: Inhibition of human AT1 receptor at 10 uM
[3] = molecular target: Chemerin-like receptor 1 (Homo sapiens) (UniProt Q99788); assay: Inhibition of ChemR23 receptor at 10 uM
[4] = molecular target: D(1A) dopamine receptor (Homo sapiens) (UniProt P21728); assay: Inhibition of human D1 receptor at 10 uM
Chain of D(1A) dopamine receptor (Homo sapiens) (P21728 whole entry): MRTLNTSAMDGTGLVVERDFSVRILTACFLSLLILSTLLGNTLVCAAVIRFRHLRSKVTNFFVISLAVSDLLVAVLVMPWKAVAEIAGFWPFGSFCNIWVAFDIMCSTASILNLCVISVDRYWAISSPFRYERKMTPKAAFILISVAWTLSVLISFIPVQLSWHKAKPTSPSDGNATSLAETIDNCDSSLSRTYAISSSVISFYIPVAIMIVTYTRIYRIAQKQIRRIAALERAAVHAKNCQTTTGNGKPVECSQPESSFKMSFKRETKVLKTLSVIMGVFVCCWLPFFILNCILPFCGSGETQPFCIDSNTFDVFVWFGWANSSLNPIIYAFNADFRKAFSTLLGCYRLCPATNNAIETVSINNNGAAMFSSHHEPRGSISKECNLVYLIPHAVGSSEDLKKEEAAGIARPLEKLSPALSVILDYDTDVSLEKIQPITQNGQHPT

[5] = molecular target: Adrenergic receptor alpha-2 (Homo sapiens) (UniProt P08913+P18825+P18089); assay: Inhibition of alpha-2 receptor at 10 uM; assay type: protein assay
[6] = system: Mus musculus; assay: Inhibition of peribronchial eosinophilia in BALB/c mouse at 5 mg/kg, po relative to control; assay type: functional, organism-based; design: dose 5 mg/kg
[7] = molecular target: Type-2 angiotensin II receptor (Homo sapiens) (UniProt P50052); assay: Inhibition of AT2
Chain of Type-2 angiotensin II receptor (Homo sapiens) (P50052 whole entry): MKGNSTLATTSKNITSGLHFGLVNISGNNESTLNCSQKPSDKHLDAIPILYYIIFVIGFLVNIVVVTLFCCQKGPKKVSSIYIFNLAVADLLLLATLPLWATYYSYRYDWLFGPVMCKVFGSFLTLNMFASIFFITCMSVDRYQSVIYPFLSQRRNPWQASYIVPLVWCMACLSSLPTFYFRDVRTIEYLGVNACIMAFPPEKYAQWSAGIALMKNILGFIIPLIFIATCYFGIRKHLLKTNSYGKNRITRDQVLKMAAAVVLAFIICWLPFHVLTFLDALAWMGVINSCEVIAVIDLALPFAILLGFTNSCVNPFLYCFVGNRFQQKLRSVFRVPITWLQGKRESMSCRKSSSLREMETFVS

[8] = molecular target: Vasopressin V1a receptor (Homo sapiens) (UniProt P37288); assay: Inhibition of human V1a receptor at 10 uM
[9] = Aqueous solubility at pH 1; assay type: physicochemical; settings: buffer
[10] = molecular target: Gastric inhibitory polypeptide receptor (Homo sapiens) (UniProt P48546); assay: Inhibition of GIP receptor at 10 uM
Chain of Gastric inhibitory polypeptide receptor (Homo sapiens) (P48546 whole entry): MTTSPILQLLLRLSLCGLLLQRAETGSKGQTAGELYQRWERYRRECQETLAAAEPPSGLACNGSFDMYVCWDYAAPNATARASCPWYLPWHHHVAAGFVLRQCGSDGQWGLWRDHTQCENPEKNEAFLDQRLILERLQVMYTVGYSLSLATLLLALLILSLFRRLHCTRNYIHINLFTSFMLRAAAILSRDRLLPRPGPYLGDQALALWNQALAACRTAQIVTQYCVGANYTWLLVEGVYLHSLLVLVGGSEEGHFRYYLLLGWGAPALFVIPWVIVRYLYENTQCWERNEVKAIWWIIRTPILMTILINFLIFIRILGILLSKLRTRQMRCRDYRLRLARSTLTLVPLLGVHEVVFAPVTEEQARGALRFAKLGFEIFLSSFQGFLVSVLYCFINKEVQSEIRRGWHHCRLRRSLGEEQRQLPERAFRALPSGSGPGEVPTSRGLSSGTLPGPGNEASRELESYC

[11] = molecular target: fMet-Leu-Phe receptor (Homo sapiens) (UniProt P21462); assay: Inhibition of human fMLP receptor at 10 uM
Chain of fMet-Leu-Phe receptor (Homo sapiens) (P21462 whole entry): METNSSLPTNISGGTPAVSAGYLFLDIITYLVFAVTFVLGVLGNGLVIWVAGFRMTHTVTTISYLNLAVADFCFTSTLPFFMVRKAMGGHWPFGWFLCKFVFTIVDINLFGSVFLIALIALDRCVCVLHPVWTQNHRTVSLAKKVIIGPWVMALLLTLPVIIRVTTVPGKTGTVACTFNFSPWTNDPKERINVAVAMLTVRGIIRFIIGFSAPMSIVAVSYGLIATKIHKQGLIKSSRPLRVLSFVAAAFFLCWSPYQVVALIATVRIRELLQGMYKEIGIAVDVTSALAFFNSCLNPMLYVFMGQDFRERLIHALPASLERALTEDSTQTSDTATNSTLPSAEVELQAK

[12] = molecular target: Histamine H2 receptor (Homo sapiens) (UniProt P25021); assay: Inhibition of human H2 receptor at 10 uM
[13] = molecular target: GABA-A receptor; anion channel (Homo sapiens) (UniProt P14867+P47870+P18507+P28472+P48169+Q99928+Q9UN88+P34903+O00591+O14764+Q8N1C3+P18505+P78334+P47869+P31644+Q16445); assay: Inhibition of central BZD receptor at 10 uM; assay type: protein-complex assay
[14] = molecular target: C5a anaphylatoxin chemotactic receptor 1 (Homo sapiens) (UniProt P21730); assay: Inhibition of human C5a receptor at 10 uM
[15] = molecular target: T1, Glutamate [NMDA] receptor (Homo sapiens) (UniProt Q05586+Q12879+Q13224+O15399+O60391+Q14957+Q8TCU5); assay: Inhibition of human NMDA receptor at 10 uM; assay type: protein-complex assay
[16] = molecular target: Substance-P receptor (Homo sapiens) (UniProt P25103); assay: Inhibition of human NK1 receptor at 10 uM
[17] = molecular target: Thromboxane A2 receptor (Homo sapiens) (UniProt P21731); assay: Inhibition of human TXA2 receptor at 10 uM
Chain of Thromboxane A2 receptor (Homo sapiens) (P21731 whole entry): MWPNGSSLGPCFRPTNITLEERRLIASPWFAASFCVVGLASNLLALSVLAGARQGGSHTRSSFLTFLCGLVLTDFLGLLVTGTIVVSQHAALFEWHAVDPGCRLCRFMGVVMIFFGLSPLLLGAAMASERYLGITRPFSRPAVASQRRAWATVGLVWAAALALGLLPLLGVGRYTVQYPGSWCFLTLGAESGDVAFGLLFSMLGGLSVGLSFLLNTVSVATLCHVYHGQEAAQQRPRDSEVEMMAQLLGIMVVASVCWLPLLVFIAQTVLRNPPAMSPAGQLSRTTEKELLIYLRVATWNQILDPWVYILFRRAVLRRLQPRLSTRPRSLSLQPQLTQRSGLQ

[18] = molecular target: Glucocorticoid receptor (Homo sapiens) (UniProt P04150); assay: Inhibition of human glucocorticoid receptor at 10 uM
Chain of Glucocorticoid receptor (Homo sapiens) (P04150 whole entry): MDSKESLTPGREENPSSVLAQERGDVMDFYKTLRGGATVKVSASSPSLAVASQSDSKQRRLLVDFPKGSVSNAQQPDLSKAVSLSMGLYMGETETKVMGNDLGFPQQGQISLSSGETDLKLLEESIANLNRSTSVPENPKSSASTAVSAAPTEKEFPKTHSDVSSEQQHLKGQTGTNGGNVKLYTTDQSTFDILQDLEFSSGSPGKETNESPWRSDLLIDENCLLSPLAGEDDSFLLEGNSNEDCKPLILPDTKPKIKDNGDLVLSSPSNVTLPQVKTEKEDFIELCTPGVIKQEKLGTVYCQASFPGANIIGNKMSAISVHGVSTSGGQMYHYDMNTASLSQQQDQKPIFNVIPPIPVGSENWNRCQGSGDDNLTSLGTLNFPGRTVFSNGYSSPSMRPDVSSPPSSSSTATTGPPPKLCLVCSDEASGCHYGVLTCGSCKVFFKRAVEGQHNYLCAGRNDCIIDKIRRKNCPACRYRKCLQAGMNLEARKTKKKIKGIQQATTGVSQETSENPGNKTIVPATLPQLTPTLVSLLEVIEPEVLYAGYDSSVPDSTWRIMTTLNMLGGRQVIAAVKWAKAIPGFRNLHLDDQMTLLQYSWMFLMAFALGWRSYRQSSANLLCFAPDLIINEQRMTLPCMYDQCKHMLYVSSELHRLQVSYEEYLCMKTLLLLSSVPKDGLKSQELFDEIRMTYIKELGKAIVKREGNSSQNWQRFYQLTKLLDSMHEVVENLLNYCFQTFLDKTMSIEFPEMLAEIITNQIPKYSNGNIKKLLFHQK

[19] = molecular target: Melanocortin receptor 4 (Homo sapiens) (UniProt P32245); assay: Inhibition of human MC4 receptor at 10 uM
Chain of Melanocortin receptor 4 (Homo sapiens) (P32245 whole entry): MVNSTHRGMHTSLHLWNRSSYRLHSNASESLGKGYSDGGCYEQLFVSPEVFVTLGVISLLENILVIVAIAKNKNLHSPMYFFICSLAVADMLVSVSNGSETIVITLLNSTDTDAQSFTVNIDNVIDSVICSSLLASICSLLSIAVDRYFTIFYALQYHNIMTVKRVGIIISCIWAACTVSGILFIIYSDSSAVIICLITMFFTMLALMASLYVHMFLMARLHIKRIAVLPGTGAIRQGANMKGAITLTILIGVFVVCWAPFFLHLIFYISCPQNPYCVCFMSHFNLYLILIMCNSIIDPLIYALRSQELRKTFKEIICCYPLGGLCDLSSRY

[20] = molecular target: Phospholipase A2 (Homo sapiens) (UniProt P04054); assay: Inhibition of PLA2 at 10 uM
Chain of Phospholipase A2 (Homo sapiens) (P04054 23-148 limits assumed): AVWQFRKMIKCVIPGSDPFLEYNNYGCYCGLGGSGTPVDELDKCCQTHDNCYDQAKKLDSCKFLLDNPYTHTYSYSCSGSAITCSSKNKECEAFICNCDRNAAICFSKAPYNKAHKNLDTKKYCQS

[21] = molecular target: Prostaglandin G/H synthase 2 (Homo sapiens) (UniProt P35354); assay: Inhibition of COX2 at 10 uM
[22] = molecular target: Somatostatin receptor (Homo sapiens) (UniProt P35346+P30874+P31391+P30872+P32745); assay: Inhibition of sst receptor at 10 uM; assay type: protein assay
[23] = molecular target: Prostaglandin D2 receptor (Homo sapiens, UniProt Q13258); assay: Inhibition of DP1
Chain of Prostaglandin D2 receptor (Q13258 whole entry): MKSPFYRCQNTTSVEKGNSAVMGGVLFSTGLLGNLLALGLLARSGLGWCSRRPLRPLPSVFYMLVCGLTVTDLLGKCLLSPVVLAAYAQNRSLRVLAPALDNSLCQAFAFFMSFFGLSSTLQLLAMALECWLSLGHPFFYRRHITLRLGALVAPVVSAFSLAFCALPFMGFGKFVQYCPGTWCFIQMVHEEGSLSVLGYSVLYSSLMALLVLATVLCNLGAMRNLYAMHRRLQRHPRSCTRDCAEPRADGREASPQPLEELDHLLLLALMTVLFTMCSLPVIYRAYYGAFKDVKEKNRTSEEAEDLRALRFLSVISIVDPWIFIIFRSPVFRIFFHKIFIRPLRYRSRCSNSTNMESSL

[24] = system: Mus musculus; assay: Inhibition of peribronchial eosinophilia in BALB/c mouse at 30 mg/kg, po relative to control; assay type: functional
[25] = molecular target: Sodium-dependent dopamine transporter (Homo sapiens) (UniProt Q01959); assay: Inhibition of human DA transporter at 10 uM
[26] = species: Rattus norvegicus; assay: Stability in rat liver S9 fraction; assay type: ADME
[27] = molecular target: Adenosine receptor A1 (Homo sapiens) (UniProt P30542); assay: Inhibition of human A1 receptor at 10 uM
Chain of Adenosine receptor A1 (Homo sapiens) (P30542 whole entry): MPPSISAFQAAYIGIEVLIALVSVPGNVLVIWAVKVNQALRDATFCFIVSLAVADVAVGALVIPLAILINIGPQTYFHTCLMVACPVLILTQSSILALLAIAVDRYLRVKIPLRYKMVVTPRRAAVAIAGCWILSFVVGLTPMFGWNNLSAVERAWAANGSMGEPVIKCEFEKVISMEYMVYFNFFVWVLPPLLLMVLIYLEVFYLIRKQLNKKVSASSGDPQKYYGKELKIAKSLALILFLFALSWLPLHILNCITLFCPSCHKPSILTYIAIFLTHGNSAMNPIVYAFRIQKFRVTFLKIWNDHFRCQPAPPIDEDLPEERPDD

[28] = molecular target: Prostaglandin G/H synthase 1 (Homo sapiens) (UniProt P23219); assay: Inhibition of COX1 at 10 uM
[29] = molecular target: Sigma non-opioid intracellular receptor 1 (Homo sapiens) (UniProt Q99720); assay: Inhibition of sigma receptor at 10 uM
Chain of Sigma non-opioid intracellular receptor 1 (Homo sapiens) (Q99720 whole entry): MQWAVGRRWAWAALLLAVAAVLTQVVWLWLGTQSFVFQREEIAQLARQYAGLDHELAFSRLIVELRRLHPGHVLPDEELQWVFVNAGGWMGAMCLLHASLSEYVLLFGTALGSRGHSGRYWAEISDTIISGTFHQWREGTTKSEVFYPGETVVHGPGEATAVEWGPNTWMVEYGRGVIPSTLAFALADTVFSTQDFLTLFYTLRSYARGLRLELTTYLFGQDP

[30] = molecular target: Polyunsaturated fatty acid lipoxygenase ALOX15 (Homo sapiens) (UniProt P16050); assay: Inhibition of 15-LO at 10 uM
[31] = molecular target: T2, Prostaglandin D2 receptor 2 (Homo sapiens, UniProt Q9Y5Y4); assay: Displacement of [3H]PGD2 from human CRTH2 receptor expressed in HEK293 cells; assay type: cell-based
T2 sequence (Q9Y5Y4 whole entry): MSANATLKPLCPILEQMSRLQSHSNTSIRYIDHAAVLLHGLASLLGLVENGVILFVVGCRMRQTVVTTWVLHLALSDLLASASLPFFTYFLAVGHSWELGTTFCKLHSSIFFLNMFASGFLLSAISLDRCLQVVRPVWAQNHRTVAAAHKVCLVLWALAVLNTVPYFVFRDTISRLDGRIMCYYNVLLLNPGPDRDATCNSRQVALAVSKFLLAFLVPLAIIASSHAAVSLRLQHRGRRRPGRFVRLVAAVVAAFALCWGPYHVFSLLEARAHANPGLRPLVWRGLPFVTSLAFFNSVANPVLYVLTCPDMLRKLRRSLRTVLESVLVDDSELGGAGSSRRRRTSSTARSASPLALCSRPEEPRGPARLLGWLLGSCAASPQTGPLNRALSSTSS

[32] = molecular target: Type-1 angiotensin II receptor (Homo sapiens) (UniProt P30556); assay: Inhibition of AT1
[33] = molecular target: Sodium-dependent noradrenaline transporter (Homo sapiens) (UniProt P23975); assay: Inhibition of human NE transporter at 10 uM
[34] = Inhibition of neuronal nicotinic receptor at 10 uM
[35] = molecular target: Endothelin-1 receptor (Homo sapiens) (UniProt P25101); assay: Inhibition of human ETA receptor at 10 uM
[36] = Permeability from basolateral to apical side of Caco-2 cells; assay type: ADME, cell-based; settings: human, read-out: permeability
[37] = molecular target: Polyunsaturated fatty acid lipoxygenase ALOX12 (Homo sapiens) (UniProt P18054); assay: Inhibition of 12-LO at 10 uM
[38] = molecular target: T1, Glutamate [NMDA] receptor (Homo sapiens); assay: Inhibition of human PCP receptor at 10 uM; assay type: protein-complex assay
[39] = molecular target: B2 bradykinin receptor (Homo sapiens) (UniProt P30411); assay: Inhibition of human B2 receptor at 10 uM
Chain of B2 bradykinin receptor (Homo sapiens) (P30411 whole entry): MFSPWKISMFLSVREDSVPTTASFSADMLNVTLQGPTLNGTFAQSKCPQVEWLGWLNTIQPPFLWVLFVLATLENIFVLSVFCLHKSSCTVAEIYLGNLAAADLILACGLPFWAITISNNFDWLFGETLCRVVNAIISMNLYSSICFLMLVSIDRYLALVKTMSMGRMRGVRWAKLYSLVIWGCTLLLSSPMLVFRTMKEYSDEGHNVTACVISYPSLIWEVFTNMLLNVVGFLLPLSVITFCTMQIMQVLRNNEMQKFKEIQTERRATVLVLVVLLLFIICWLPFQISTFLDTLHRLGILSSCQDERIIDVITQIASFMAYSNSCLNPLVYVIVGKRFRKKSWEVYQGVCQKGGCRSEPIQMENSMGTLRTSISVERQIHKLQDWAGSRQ

[40] = Distribution coefficient, log D at pH 7.4; assay type: physicochemical; settings: octanol/water
[41] = molecular target: Cholecystokinin receptor type A (Homo sapiens) (UniProt P32238); assay: Inhibition of human CCKA receptor at 10 uM
[42] = molecular target: Muscarinic acetylcholine receptor (Homo sapiens) (UniProt P20309+P08173+P11229+P08172+P08912); assay: Inhibition of human M receptor at 10 uM; assay type: protein assay
[43] = species: Homo sapiens; assay: Stability in human liver S9 fraction; assay type: ADME

Chain of Type-1 angiotensin II receptor (Homo sapiens) (P30556 whole entry): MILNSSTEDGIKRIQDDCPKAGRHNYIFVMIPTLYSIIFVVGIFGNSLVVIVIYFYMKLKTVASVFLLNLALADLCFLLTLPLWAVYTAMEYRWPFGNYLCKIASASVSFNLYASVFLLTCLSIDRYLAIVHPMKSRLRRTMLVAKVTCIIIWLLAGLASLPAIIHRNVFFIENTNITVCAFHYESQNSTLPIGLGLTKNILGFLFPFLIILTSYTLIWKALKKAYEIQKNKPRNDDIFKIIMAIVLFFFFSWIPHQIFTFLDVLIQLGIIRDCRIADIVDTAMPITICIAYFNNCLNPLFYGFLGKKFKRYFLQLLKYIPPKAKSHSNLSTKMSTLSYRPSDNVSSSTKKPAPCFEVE

inhibition [1]: < 30% | inhibition [2]: < 30% | inhibition [3]: < 30% | inhibition [4]: < 30% | inhibition [5]: < 30% | Activity [7]: inactive | inhibition [8]: < 30% | solubility [9]: 80 µM (≈ 32.1 µg/mL) | inhibition [10]: < 30% | inhibition [11]: < 30% | inhibition [12]: < 30% | inhibition [13]: < 30% | inhibition [15]: < 30% | inhibition [16]: < 30% | inhibition [17]: < 30% | inhibition [18]: < 30% | inhibition [19]: < 30% | inhibition [20]: < 20% | inhibition [21]: < 20% | inhibition [22]: < 30% | IC50 [23]: > 100000 nM | inhibition [25]: < 30% | Stability [26]: 92% | inhibition [27]: < 30% | inhibition [28]: < 20% | inhibition [29]: < 30% | inhibition [30]: < 20% | IC50 [31]: 1.5 nM | Activity [32]: inactive | inhibition [33]: < 30% | inhibition [34]: < 30% | inhibition [35]: < 30% | Papp B→A [36]: 13 ×10⁻⁶ cm/s | inhibition [37]: < 20% | inhibition [38]: < 30% | inhibition [39]: < 30% | logD [40]: 0.64 | inhibition [41]: < 30% | inhibition [42]: < 30% | Stability [43]: 93%
SMILES: O=C(O)COc1ccc(Br)cc1C(=O)c1cnn(-c2ccccc2)c1
Activity [6]: Active | inhibition [14]: < 30% | inhibition in vivo at 30 mg/kg [24]: 62%

— ChEMBL document CHEMBL1137324, “Novel selective orally active CRTH2 antagonists for allergic inflammation developed from in silico derived hits” (J Med Chem, 2006)
